Laboratory results published in ChEMBL document CHEMBL3430912, “GSK Tres Cantos Anti-Kinetoplastid Screening (TCAKS) Data”.

What was measured:
Trypanosoma cruzi [1] = experiment: (§1) GSK_TCAKS: pIC50 Trypanosoma cruzi Imaging: Infected Cells. […] Cells were then washed once with PBS before infection. T. cruzi trypomastigotes, collected at days 5 to 8 after infection from LLC-MK2 parasite infected cultures, were allowed to swim out for 4h at 37C from a centrifuged pellet (2,500 rpm/10 min/room temperature). Trypomastigotes were then collected and counted in a CASY Cell Counter. Trypomastigotes, in supplemented DMEM, were added to H9c2 cultures in a multiplicity of infection of 1 and incubated for 18 h. Cells were washed once with PBS before incubation of the infected H9c2 monolayer with trypsin (Life-Technologies) to detach cells from the flask. Cells were counted in a CASY Cell Counter using a 150 um capillary and their density set at 5 * 10^4 cells per mL in supplemented assay DMEM. Infected H9c2 were dispensed into 384-well poly-lysine coated assay plates at 50uL per well using a Multidrop Combi dispenser. After seeding them, the plates were incubated at 37C, 5% CO2 for 72h. Cultures were then fixed and stained by addition of 50 uL of a solution containing 8% formaldehyde and 4 uM DRAQ5 DNA dye (BioStatus, UK) per well. […] Five images were collected per well for reliable statistical analysis. Automated image analysis was performed with a script developed on Acapella High Content Imaging and Analysis Software (PerkinElmer). Output: percentage of infected cells per well as a second infection marker.; type: functional, organism-based, Rattus norvegicus; conditions: H9c2, 4 h
Trypanosoma cruzi [2] = experiment: GSK_TCAKS: pIC50 Trypanosoma cruzi Imaging: Amastigotes/Cell. […] Cells were then washed once with PBS before infection. T. cruzi trypomastigotes, collected at days 5 to 8 after infection from LLC-MK2 parasite infected cultures, were allowed to swim out for 4h at 37C from a centrifuged pellet (2,500 rpm/10 min/room temperature). Trypomastigotes were then collected and counted in a CASY Cell Counter. Trypomastigotes, in supplemented DMEM, were added to H9c2 cultures in a multiplicity of infection of 1 and incubated for 18 h. Cells were washed once with PBS before incubation of the infected H9c2 monolayer with trypsin (Life-Technologies) to detach cells from the flask. Cells were counted in a CASY Cell Counter using a 150 um capillary and their density set at 5 * 10^4 cells per mL in supplemented assay DMEM. Infected H9c2 were dispensed into 384-well poly-lysine coated assay plates at 50uL per well using a Multidrop Combi dispenser. After seeding them, the plates were incubated at 37C, 5% CO2 for 72h. Cultures were then fixed and stained by addition of 50 uL of a solution containing 8% formaldehyde and 4 uM DRAQ5 DNA dye (BioStatus, UK) per well. […] Five images were collected per well for reliable statistical analysis. Automated image analysis was performed with a script developed on Acapella High Content Imaging and Analysis Software (PerkinElmer). Output: number of amastigotes per cell as infection level measurement.; type: functional, organism-based, Rattus norvegicus; conditions: H9c2, 4 h
Leishmania donovani [3] = experiment: GSK_TCAKS: pIC50 Leishmania donovani viability assay using fluorescence intensity. Assay plates (1536-well) were prepared by adding 30nL per well of compound. For single shot assay, the final compound concentration was 5uM. […] Briefly, eGFP LdBOB axenic amastigotes were harvested, fixed and counted in a CASY cell counter (Roche-Applied Science). A final concentration of 1.5 * 10^5 cells per well were prepared in amastigote media containing 500 U/mL penicillin/streptomycin (Invitrogen) and 6uL was dispensed to each experimental well using a Multidrop Combi dispenser (Thermo Scientific). 6uL of assay media was dispensed to control columns used as reference for 100% compound response. Following incubation for 72 h at 37C, 5% CO2, 2 uL of resazurin was added to each well at a final concentration of 0.5 mM in phosphate buffered saline (PBS) with IGEPAL (Sigma-Aldrich), 0.05% (v/v).; type: functional, organism-based
Leishmania donovani [4] = experiment: (§2) GSK_TCAKS: pIC50 Leishmania donovani Imaging: THP-1 Host Macrophages. Assay plates (384-well) were prepared by adding 250nL of compound to each well. For single shot assay, the final compound concentration was 5 uM. […] Automated image analysis was performed with a script developed on Acapella High Content Imaging and Analysis Software (PerkinElmer). Output: THP-1 cell count were reported for each well.; type: functional, organism-based, Homo sapiens
[5] = biological target: Sterol 14-alpha demethylase (Trypanosoma cruzi (strain CL Brener), UniProt Q7Z1V1); experiment: GSK_TCAKS: pIC50 CYP51 from Trypanosoma cruzi.; type: functional
Trypanosoma cruzi [6] = experiment: GSK_TCAKS: pIC50 Trypanosoma cruzi viability assay using beta-GAL activity. This assay was run at single shot at 5uM compound concentration per well. The biological reagents consisted of NIH-3T3 host cells and trypomastigotes parasitic cells; both cell types were set to a 3.3 * 10^5 cells/mL dilution in assay DMEM by means of a CASY cell counter device using a 60um capillary. 6 uL of the mixture were dispensed per well (about 1 * 10^3 host-cells and 1 * 10^3 parasites) with a Multidrop Combi dispenser. […] In all wells, the percentage of DMSO never exceeded 0.5%. Plates incubated for four days at 37C, 5% CO2. The substrate used for the assay fluorescence intensity (FLINT) readout was resorufin-beta-D-galactopiranoside (Sigma-Aldrich) at 5uM per well. It was diluted in PBS supplemented with the soft detergent Igepal (Fluka).; type: functional, organism-based, Mus musculus; conditions: Tulahuen, NIH3T3
[7] = GSK_TCAKS: pIC50 HepG2 human cell line viability assay using luminiscence. […] Seeding density was checked to ensure that new mono-layers were not more than 50% confluent at the time of harvesting. Cell suspension was added to 500 mL of the same medium at a final density of 1.2 * 10^5 cells/mL. This cell suspension was dispensed (25 uL, 3000 cells per well) into 384-well clear-bottom plates using a Multidrop Combi dispenser. Prior to addition of the cell suspension, the screening compounds (250 nL) were pre-dispensed into the plates with an Echo liquid handler. Plates were incubated for 48 h at 37C, 5% CO2. After incubation, plates equilibrated at room temperature for 30 min before proceeding to develop the luminescent signal. The signal developer, CellTiter-Glo Reagent, was allowed to equilibrate at room temperature for 30 min and added to the plates (25uL per well) using a Multidrop Combi dispenser. Plates were left for 10 min at room temperature for stabilization and then read using a ViewLux.; type: toxicity, cell-based
Leishmania donovani [8] = experiment: as §2, with “Amastigotes/Macrophages.” for “THP-1 Host Macrophages.”, “Average number of amastigotes per macrophage” for “THP-1”, “cell” for “cell count”; type: functional, organism-based, Homo sapiens; conditions: THP-1
NIH3T3 = experiment: GSK_TCAKS: pIC50 NIH 3T3 cell line viability assay using luminiscence. Tissue culture surface treated assay plates (1536-well) were used. […] The 100% cells survival control was determined exposing the host-cells to a 0.5% DMSO concentration, whereas the 100% toxicity control was achieved by seeding the cells in presence of Amphotericin B at 50uM. Plates were incubated for four days at 37C, 5% CO2. The assay readout was developed by addition of 5uL of CellTiter-Glo Reagent following the manufacturer's instructions. Luminiscence was measured using a ViewLux.; type: functional, cell-based; conditions: Mus musculus, NIH3T3, 96 h
[9] = system: Trypanosoma brucei brucei; experiment: GSK_TCAKS: pIC50 Trypanosoma brucei viability assay using luminiscence. Assay plates (1536-well) were prepared. T. brucei cultures were harvested and counted in a CASY cell counter. A parasite suspension was prepared at a final concentration of 5 * 10^4 cells/mL in complete HMI9 medium and 6uL was dispensed to all wells containing compounds using a Multidrop Combi dispenser. 6uL of HMI9 media with 0.4% DMSO were dispensed to control columns. Plates were incubated for 24 h at 37C, 5% CO2 then tempered for 10 min at room temperature. ATP content was quantified by adding 4 uL of CellTiter-Glo Reagent (Promega) according to the manufacturer's instructions. Luminescence was measured using a ViewLux.; type: functional, organism-based; conditions: Lister 427, CASY
Leishmania donovani [10] = experiment: as §2, with “Infected” for “THP-1 Host”, “Percent of infected macrophage cells” for “THP-1 cell count”; type: functional, organism-based, Homo sapiens; conditions: THP-1
[11] = system: Trypanosoma brucei brucei; experiment: GSK_TCAKS: pIC50 Trypanosoma brucei viability assay using fluorescence intensity. Assay plates (1536-well) were prepared by dispensing 25nL of compound solution per well using an Echo acoustic dispenser (Labcyte).; type: functional, organism-based; conditions: Lister 427, 2 h
Trypanosoma cruzi [12] = experiment: as §1, with “H2C9” for “Trypanosoma cruzi”, “H9c2 Host Cardiomyocytes.” for “Infected Cells.”, “Number” for “percentage”, “H9c2 Host Cardiomyocytes nuclei to determine drug-related cytotoxicity.” for “infected cells per well as a second infection marker.”; type: functional, organism-based, Rattus norvegicus; conditions: H9c2, 4 h

Sequence of Sterol 14-alpha demethylase (Q7Z1V1 whole entry): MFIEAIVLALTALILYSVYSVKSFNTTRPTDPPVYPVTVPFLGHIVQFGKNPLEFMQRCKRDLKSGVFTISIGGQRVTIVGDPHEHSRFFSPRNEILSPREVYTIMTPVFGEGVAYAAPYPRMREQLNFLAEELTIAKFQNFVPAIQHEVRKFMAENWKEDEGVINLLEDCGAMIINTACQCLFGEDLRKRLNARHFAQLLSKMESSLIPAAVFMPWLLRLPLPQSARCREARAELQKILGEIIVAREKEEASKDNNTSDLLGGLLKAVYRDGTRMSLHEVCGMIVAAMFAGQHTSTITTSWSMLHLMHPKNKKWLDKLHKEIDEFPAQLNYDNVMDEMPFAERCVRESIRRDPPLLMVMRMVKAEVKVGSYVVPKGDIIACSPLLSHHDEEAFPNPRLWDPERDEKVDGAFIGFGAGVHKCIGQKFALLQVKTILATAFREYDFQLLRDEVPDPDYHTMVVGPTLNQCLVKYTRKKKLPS

Compound: COc1ccc(NS(=O)(=O)c2cc(-c3cc(C)n[nH]3)ccc2C)cc1OC
- IC50 (Trypanosoma cruzi [1]): 2 µM
- IC50 (Trypanosoma cruzi [2]): 1.26 µM
- IC50 (Leishmania donovani [3]): 1 µM
- IC50 (Leishmania donovani [4]): > 50.1 µM
- IC50 [5]: 39.8 µM
- IC50 (Trypanosoma cruzi [6]): 1.41 µM
- IC50 at 48 h [7]: > 100 µM
- IC50 (Leishmania donovani [8]): 7.94 µM
- IC50 (NIH3T3): > 50.1 µM
- IC50 [9]: 0.631 µM
- IC50 (Leishmania donovani [10]): 10 µM
- IC50 [11]: 0.316 µM
- IC50 (Trypanosoma cruzi [12]): > 50.1 µM

Compound: O=S(=O)(c1cccc(CSc2nnc(-c3ccc4c(c3)OCO4)o2)c1)N1CCOCC1
- IC50 (Trypanosoma cruzi [1]): 0.1 µM
- IC50 (Trypanosoma cruzi [2]): 0.0398 µM
- IC50 (Leishmania donovani [3]): 0.501 µM
- IC50 (Leishmania donovani [4]): > 50.1 µM
- IC50 [5]: 12.6 µM
- IC50 (Trypanosoma cruzi [6]): 0.224 µM
- IC50 at 48 h [7]: > 100 µM
- IC50 (Leishmania donovani [8]): 0.251 µM
- IC50 (NIH3T3): 15.8 µM
- IC50 [9]: > 39.8 µM
- IC50 (Leishmania donovani [10]): 0.794 µM
- IC50 [11]: 31.6 µM
- IC50 (Trypanosoma cruzi [12]): 25.1 µM

Compound: O=C(Nc1ccc(C(=O)N2CCCC2c2ccc3c(c2)OCCCO3)cc1)c1ccco1 (centres undefined)
- IC50 (Trypanosoma cruzi [1]): 1 µM
- IC50 (Trypanosoma cruzi [2]): 0.631 µM
- IC50 (Leishmania donovani [3]): 0.794 µM
- IC50 (Leishmania donovani [4]): > 50.1 µM
- IC50 [5]: 63.1 µM
- IC50 (Trypanosoma cruzi [6]): 0.501 µM
- IC50 at 48 h [7]: > 100 µM
- IC50 (Leishmania donovani [8]): 3.16 µM
- IC50 (NIH3T3): > 50.1 µM
- IC50 [9]: 0.316 µM
- IC50 (Leishmania donovani [10]): 6.31 µM
- IC50 [11]: 0.2 µM
- IC50 (Trypanosoma cruzi [12]): > 50.1 µM

Compound: CC1CN(S(=O)(=O)c2ccc(NC(=O)c3cc(C4CC4)nc4c3cnn4C(C)C)cc2)CC(C)O1 (centres undefined)
- IC50 (Trypanosoma cruzi [1]): 0.794 µM
- IC50 (Trypanosoma cruzi [2]): 0.631 µM
- IC50 (Leishmania donovani [3]): 20 µM
- IC50 (Leishmania donovani [4]): 10 µM
- IC50 [5]: > 100 µM
- IC50 (Trypanosoma cruzi [6]): 0.631 µM
- IC50 at 48 h [7]: > 100 µM
- IC50 (Leishmania donovani [8]): > 50.1 µM
- IC50 (NIH3T3): > 50.1 µM
- IC50 [9]: 6.31 µM
- IC50 (Leishmania donovani [10]): > 50.1 µM
- IC50 [11]: 6.31 µM
- IC50 (Trypanosoma cruzi [12]): > 50.1 µM

Compound: O=C(NCCc1cccnc1)c1csc(-c2ccccc2)n1
- IC50 (Trypanosoma cruzi [1]): 0.501 µM
- IC50 (Trypanosoma cruzi [2]): 0.398 µM
- IC50 (Leishmania donovani [3]): > 50.1 µM
- IC50 (Leishmania donovani [4]): > 50.1 µM
- IC50 [5]: 0.0631 µM
- IC50 (Trypanosoma cruzi [6]): 0.282 µM
- IC50 at 48 h [7]: > 100 µM
- IC50 (Leishmania donovani [8]): > 50.1 µM
- IC50 (NIH3T3): 50.1 µM
- IC50 [9]: > 39.8 µM
- IC50 (Leishmania donovani [10]): > 50.1 µM
- IC50 [11]: 25.1 µM
- IC50 (Trypanosoma cruzi [12]): > 50.1 µM

Compound: CC(=O)Nc1nc(-c2cc(C)ccc2C)c(C)s1
- IC50 (Trypanosoma cruzi [1]): 0.2 µM
- IC50 (Trypanosoma cruzi [2]): 0.158 µM
- IC50 (Leishmania donovani [3]): > 50.1 µM
- IC50 (Leishmania donovani [4]): > 50.1 µM
- IC50 [5]: > 100 µM
- IC50 (Trypanosoma cruzi [6]): 0.2 µM
- IC50 at 48 h [7]: > 100 µM
- IC50 (Leishmania donovani [8]): 31.6 µM
- IC50 (NIH3T3): 25.1 µM
- IC50 [9]: > 39.8 µM
- IC50 (Leishmania donovani [10]): > 50.1 µM
- IC50 [11]: > 39.8 µM
- IC50 (Trypanosoma cruzi [12]): > 50.1 µM

Compound: O=c1[nH]c(C=Cc2cccc(OCCOc3ccccc3)c2)nc(O)c1[N+](=O)[O-]
- IC50 (Trypanosoma cruzi [1]): 0.2 µM
- IC50 (Trypanosoma cruzi [2]): 0.158 µM
- IC50 (Leishmania donovani [3]): > 50.1 µM
- IC50 (Leishmania donovani [4]): > 50.1 µM
- IC50 [5]: > 100 µM
- IC50 (Trypanosoma cruzi [6]): 0.794 µM
- IC50 at 48 h [7]: > 100 µM
- IC50 (Leishmania donovani [8]): > 50.1 µM
- IC50 (NIH3T3): > 50.1 µM
- IC50 [9]: 10 µM
- IC50 (Leishmania donovani [10]): > 50.1 µM
- IC50 [11]: 10 µM
- IC50 (Trypanosoma cruzi [12]): > 50.1 µM

Compound: Cn1nccc1-c1cc(OC(CN)c2ccccc2)cnc1-c1ccco1 (centres undefined)
- IC50 (Trypanosoma cruzi [1]): 0.1 µM
- IC50 (Trypanosoma cruzi [2]): 0.1 µM
- IC50 (Leishmania donovani [3]): > 50.1 µM
- IC50 (Leishmania donovani [4]): 15.8 µM
- IC50 [5]: 0.0631 µM
- IC50 (Trypanosoma cruzi [6]): 0.398 µM
- IC50 at 48 h [7]: 50.1 µM
- IC50 (Leishmania donovani [8]): 31.6 µM
- IC50 (NIH3T3): 20 µM
- IC50 [9]: 15.8 µM
- IC50 (Leishmania donovani [10]): > 50.1 µM
- IC50 [11]: 12.6 µM
- IC50 (Trypanosoma cruzi [12]): > 50.1 µM
